From patent US20080166403A1, “Long circulating liposome” (Industrial Technology Research Institute, priority 2003, published 2008)

Test: Circulation time of liposomes in the body: Doxorubicin concentration in rat blood by a pharmacokinetics method with HPLC analysis
Assay type: in vivo
Settings: 8 hours after injection, FIG. 1
Description: In this example, the concentration of Doxorubicin in the blood is determined by a pharmacokinetics method, and HPLC analysis is performed subsequently.
Doxo. is compared with DO503 liposomes (Example 1) and DO502 liposomes (Example 2), wherein Doxo. represents the free doxorubicin solution. […] Especially for DO503, it even exists in rat blood 48 hours after injection.

## COc1cccc2c1C(=O)c1c(O)c3c(c(O)c1C2=O)C[C@@](O)(C(=O)CO)C[C@@H]3O[C@H]1C[C@H](N)[C@H](O)[C@H](C)O1 [Doxo., doxorubicin]
  Doxorubicin concentration in rat blood: almost no Doxorubicin concentration detected
